According to US9988400B2 (Genentech, Inc., priority 2013, dated 2018):

Target: T1, HEK cells stably transfected with tetracycline inducible hNR1 and hNR2A (Homo sapiens, UniProt Q05586+Q12879)
T1 construct: expressed in transfected cells; host or cells: HEK cells, stably transfected, tetracycline/doxycycline inducible
Experiment: Assay 1: Cell-Based Assay, cytosolic calcium response to positive allosteric modulators (with 30 μM glycine and 300 nM L-glutamate, EC30)
Settings: for EC50: cytosolic calcium response, with 30 μM glycine and 300 nM L-glutamate (EC30), — = no plateau was reached; for Max %: responses scaled relative to 100 μM L-glutamate maximal response (100%) and 0 μM L-glutamate (0%)
Procedure, shortened: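 Cells induced 24 h with 7.5 μg mL^−1 doxycycline plus 500 μM (+)-ketamine, loaded 60 min at 37 °C with calcium dye in Mg-free HBSS (1.8 mM Ca, probenecid, 10 μM (+)-ketamine, pH 7.15). Peak RFU over 5 min after compound addition, scaled to 100 μM L-glutamate (100%) and 0 μM (0%); four-parameter Hill fit for EC50, max % if no plateau.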

T1 sequence (Q12879 23-1464, other chains not shown): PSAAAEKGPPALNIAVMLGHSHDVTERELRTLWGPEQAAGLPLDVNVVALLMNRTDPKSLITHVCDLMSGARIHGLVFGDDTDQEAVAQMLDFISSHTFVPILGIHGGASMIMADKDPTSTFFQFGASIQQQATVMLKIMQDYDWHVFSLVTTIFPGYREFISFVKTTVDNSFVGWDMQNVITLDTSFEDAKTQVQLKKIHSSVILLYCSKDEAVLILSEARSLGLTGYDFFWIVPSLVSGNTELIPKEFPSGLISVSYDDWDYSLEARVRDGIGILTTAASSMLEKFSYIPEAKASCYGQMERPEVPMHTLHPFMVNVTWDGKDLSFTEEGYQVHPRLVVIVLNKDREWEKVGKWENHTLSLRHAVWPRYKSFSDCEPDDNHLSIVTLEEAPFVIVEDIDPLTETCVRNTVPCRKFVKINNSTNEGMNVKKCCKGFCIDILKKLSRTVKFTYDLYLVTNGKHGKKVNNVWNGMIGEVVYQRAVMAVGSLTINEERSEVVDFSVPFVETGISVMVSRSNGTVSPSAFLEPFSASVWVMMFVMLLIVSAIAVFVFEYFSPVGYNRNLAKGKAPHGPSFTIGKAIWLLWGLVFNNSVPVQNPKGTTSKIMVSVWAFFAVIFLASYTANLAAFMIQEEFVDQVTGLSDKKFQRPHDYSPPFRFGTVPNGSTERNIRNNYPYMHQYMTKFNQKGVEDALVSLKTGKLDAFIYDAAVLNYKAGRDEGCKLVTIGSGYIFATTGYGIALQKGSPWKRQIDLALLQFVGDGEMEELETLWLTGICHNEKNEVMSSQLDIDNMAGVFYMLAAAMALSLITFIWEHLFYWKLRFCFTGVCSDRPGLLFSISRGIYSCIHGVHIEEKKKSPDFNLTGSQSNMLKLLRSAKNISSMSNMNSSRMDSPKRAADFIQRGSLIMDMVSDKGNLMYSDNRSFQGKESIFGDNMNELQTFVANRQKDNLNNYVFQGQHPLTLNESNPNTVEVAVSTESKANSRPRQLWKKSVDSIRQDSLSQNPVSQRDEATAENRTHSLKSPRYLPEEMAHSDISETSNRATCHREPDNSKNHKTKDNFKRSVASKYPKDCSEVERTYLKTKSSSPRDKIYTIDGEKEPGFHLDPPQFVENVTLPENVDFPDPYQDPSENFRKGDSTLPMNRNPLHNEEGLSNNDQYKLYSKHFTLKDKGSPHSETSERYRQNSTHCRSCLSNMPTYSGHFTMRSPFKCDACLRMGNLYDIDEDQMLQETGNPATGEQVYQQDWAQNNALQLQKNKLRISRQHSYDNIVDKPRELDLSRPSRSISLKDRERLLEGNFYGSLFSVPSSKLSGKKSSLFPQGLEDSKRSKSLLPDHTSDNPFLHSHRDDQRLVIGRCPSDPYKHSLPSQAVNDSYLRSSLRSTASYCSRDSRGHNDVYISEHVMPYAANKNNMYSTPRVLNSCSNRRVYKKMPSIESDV

SMILES	EC50 (Table 2)	Max % (Table 2)	EC50 (Table 3)
Cc1sc2nc(Oc3cccc(C#N)c3F)cc(=O)n2c1C1CC1C(F)(F)F (centres unmarked) [compound 77, 2-fluoro-3-[2-methyl-5-oxo-3-[2-(trifluoromethyl)cyclopropyl]thiazolo[3,2-a]pyrimidin-7-yl]oxy-benzonitrile]			271 nM
Cc1sc2nc(Cc3cccc(C(F)(F)F)c3F)cc(=O)n2c1C(C)O (single isomer, unassigned; enantiomer 1) [Example 27.11, 7-(2-fluoro-3-(trifluoromethyl)benzyl)-3-(1-hydroxyethyl)-2-methyl-5H-thiazolo[3,2-a]pyrimidin-5-one (enantiomer 1)]	25300 nM		
Cc1sc2nc(COc3ccc(F)cc3)cc(=O)n2c1C(C)(C)O [Example 2.4, 7-(4-Fluorophenoxymethyl)-3-(2-hydroxypropan-2-yl)-2-methyl-5H-[1,3]thiazolo[3,2-a]pyrimidin-5-one]	3000 nM	44.6%	
Cc1sc2nc(COc3ccc(F)cc3)cc(=O)n2c1C(=O)NC(C)CO (centres unmarked) [Example 1.12, 7-(4-Fluorophenoxymethyl)-N-(1-hydroxypropan-2-yl)-2-methyl-5-oxo-5H-[1,3]thiazolo[3,2-a]pyrimidine-3-carboxamide]		45.5%	
CCN(Cc1cc(=O)n2c(C(C)(C)C)c(C)sc2n1)c1ccc(F)cc1 [Example 10.2, 3-tert-butyl-7-[(N-ethyl-4-fluoro-anilino)methyl]-2-methyl-thiazolo[3,2-a]pyrimidin-5-one]	5300 nM	110%	
CCC(=O)c1c(C)sc2nc(Cn3nc(Cl)cc3C(F)(F)F)cc(=O)n12 [compound 141, 7-[[3-chloro-5-(trifluoromethyl)pyrazol-1-yl]methyl]-2-methyl-3-propanoyl-thiazolo[3,2-a]pyrimidin-5-one]			328 nM
CCNC(=O)c1c(OC)sc2nc(Cn3nc(C(F)(F)F)cc3C3CC3)cc(=O)n12 [compound 129, 7-[[5-cyclopropyl-3-(trifluoromethyl)pyrazol-1-yl]methyl]-N-ethyl-2-methoxy-5-oxo-thiazolo[3,2-a]pyrimidine-3-carboxamide]			774 nM
CCNC(=O)c1c(C2CC2)sc2nc(Cc3cccc(C#N)c3F)cc(=O)n12 [Example 21.9, 7-(3-cyano-2-fluorobenzyl)-2-cyclopropyl-N-ethyl-5-oxo-5H-thiazolo[3,2-a]pyrimidine-3-carboxamide]		90.1%	
COc1sc2nc(Cn3nc(C(F)(F)F)cc3Cl)cc(=O)n2c1-c1cccnc1 [compound 233, 7-[[5-chloro-3-(trifluoromethyl)pyrazol-1-yl]methyl]-2-methoxy-3-(3-pyridyl)thiazolo[3,2-a]pyrimidin-5-one]			6140 nM
CCN(Cc1cc(=O)n2c(C(O)CO)c(C)sc2n1)c1ccc(F)cc1 (centres unmarked) [Example 12.5, 3-(1,2-dihydroxyethyl)-7-[(N-ethyl-4-fluoro-anilino)methyl]-2-methyl-thiazolo[3,2-a]pyrimidin-5-one]	974 nM	153%	
Cc1sc2nc(Cn3nc(C#N)cc3C)cc(=O)n2c1[C@@H]1C[C@H]1CO (relative stereo) [Example 15.21, 1-[[3-[trans-2-(hydroxymethyl)cyclopropyl]-2-methyl-5-oxo-thiazolo[3,2-a]pyrimidin-7-yl]methyl]-5-methyl-pyrazole-3-carbonitrile]	1600 nM	161%	
Cc1sc2nc(Cn3nc(C(F)(F)F)cc3Cl)cc(=O)n2c1-c1cncc(Cl)c1 [compound 149, 3-(5-chloro-3-pyridyl)-7-[[5-chloro-3-(trifluoromethyl)pyrazol-1-yl]methyl]-2-methyl-thiazolo[3,2-a]pyrimidin-5-one]			729 nM
Cc1sc2nc(Cn3nc(Cl)cc3C(F)(F)F)cc(=O)n2c1C(C)O (centres unmarked) [compound 111, 7-[[3-chloro-5-(trifluoromethyl)pyrazol-1-yl]methyl]-3-(1-hydroxyethyl)-2-methyl-thiazolo[3,2-a]pyrimidin-5-one]			6000 nM
Cc1sc2nc(COc3ccc(F)cc3)cc(=O)n2c1C1CC1CO (single isomer, unassigned) [Example 4.1, 7-(4-Fluorophenoxymethyl)-3-[trans-2-(hydroxymethyl)cyclopropyl]-2-methyl-5H-[1,3]thiazolo[3,2-a]pyrimidin-5-one]	5100 nM	141%	
CCNC(=O)c1c(OCC)sc2nc(Cn3nc(C(F)(F)F)cc3Cl)cc(=O)n12 [compound 175, 7-[[5-chloro-3-(trifluoromethyl)pyrazol-1-yl]methyl]-2-ethoxy-N-ethyl-5-oxo-thiazolo[3,2-a]pyrimidine-3-carboxamide]			864 nM
Cc1sc2nc(COc3ccc(F)cc3)cc(=O)n2c1[C@@H]1C[C@H]1C(F)(F)F (relative stereo) [Example 4.24, trans-7-(4-Fluorophenoxymethyl)-2-methyl-3-[2-(trifluoromethyl)cyclopropyl]-5H-[1,3]thiazolo[3,2-a]pyrimidin-5-one]	2100 nM	80%	
CNC(=O)c1c(C(F)(F)F)sc2nc(Cc3cccc(C(F)(F)F)c3F)cc(=O)n12 [compound 63, 7-[[2-fluoro-3-(trifluoromethyl)phenyl]methyl]-N-methyl-5-oxo-2-(trifluoromethyl)thiazolo[3,2-a]pyrimidine-3-carboxamide]			3710 nM
O=c1cc(Cn2nc(C(F)(F)F)cc2Cl)nc2sc(C(F)(F)F)c(-c3cncc(Cl)c3)n12 [compound 255, 3-(5-chloro-3-pyridyl)-7-[[5-chloro-3-(trifluoromethyl)pyrazol-1-yl]methyl]-2-(trifluoromethyl)thiazolo[3,2-a]pyrimidin-5-one]			7860 nM

Continued, values first:

EC50 (Table 2)	Max % (Table 2)	EC50 (Table 3)	SMILES
2700 nM	154%		CCN(Cc1cc(=O)n2c3c(sc2n1)CCC3C(N)=O)c1ccc(F)cc1 (centres unmarked) [Example 8.11, 6-[(N-ethyl-4-fluoro-anilino)methyl]-8-oxo-2,3-dihydro-1H-cyclopenta[3,4]thiazolo[1,4-a]pyrimidine-1-carboxamide]
		753 nM	CNC(=O)c1c(C)sc2nc(Cc3cccc(C4CC4)c3F)c(F)c(=O)n12 [compound 6, 7-[(3-cyclopropyl-2-fluoro-phenyl)methyl]-6-fluoro-N,2-dimethyl-5-oxo-thiazolo[3,2-a]pyrimidine-3-carboxamide]
		64.2 nM	CCN(Cc1cc(=O)n2c(C3CC3CO)c(C)sc2n1)c1ccc(Cl)cn1 (centres unmarked) [compound 196, 7-[[(5-chloro-2-pyridyl)-ethyl-amino]methyl]-3-[2-(hydroxymethyl)cyclopropyl]-2-methyl-thiazolo[3,2-a]pyrimidin-5-one]
		24600 nM	CNC(=O)c1c(C(F)(F)F)sc2nc(Cn3nc(C)cc3C(F)(F)F)cc(=O)n12 [compound 62, N-methyl-7-[[3-methyl-5-(trifluoromethyl)pyrazol-1-yl]methyl]-5-oxo-2-(trifluoromethyl)thiazolo[3,2-a]pyrimidine-3-carboxamide]
21000 nM	148%		CCN(Cc1cc(=O)n2c(C#N)c(C)sc2n1)c1ccccn1 [Example 7.7, 7-((ethyl(pyridin-2-yl)amino)methyl)-2-methyl-5-oxo-5H-thiazolo[3,2-a]pyrimidine-3-carbonitrile]
		2040 nM	Cc1sc2nc(Cn3nc(C(F)(F)F)cc3Cl)cc(=O)n2c1-c1ccn[nH]1 [compound 132]
5700 nM	42.2%		Cc1sc2nc(COc3ccc(F)cc3)cc(=O)n2c1-c1cncnc1 [Example 4.5, 7-((4-fluorophenoxy)methyl)-2-methyl-3-(pyrimidin-5-yl)-5H-thiazolo[3,2-a]pyrimidin-5-one]
	127%		Cc1sc2nc(Cn3ccc(C(F)(F)F)n3)cc(=O)n2c1C(C)(C)O [Example 18.4, 3-(2-hydroxypropan-2-yl)-2-methyl-7-((3-(trifluoromethyl)-1H-pyrazol-1-yl)methyl)-5H-thiazolo[3,2-a]pyrimidin-5-one]
345 nM	165%		CCN(Cc1cc(=O)n2c(COC)c(C)sc2n1)c1ccc(F)cc1 [Example 10.13, 7-[[ethyl(4-fluorophenyl)amino]methyl]-3-(methoxymethyl)-2-methyl-5H-[1,3]thiazolo[3,2-a]pyrimidin-5-one]
		562 nM	CCNC(=O)c1c(C)sc2nc(Cn3nc(Cl)cc3Cl)cc(=O)n12 [compound 164, 7-[(3,5-dichloropyrazol-1-yl)methyl]-N-ethyl-2-methyl-5-oxo-thiazolo[3,2-a]pyrimidine-3-carboxamide]
	60.5%		CCN(Cc1cc(=O)n2c3c(sc2n1)CCC31CCCC1)c1ccc(F)cc1 [Example 8.6, 6-[(N-ethyl-4-fluoro-anilino)methyl]spiro[2,3-dihydrocyclopenta[3,4]thiazolo[1,4-a]pyrimidine-1,1′-cyclopentane]-8-one]
	92%		CNC(=O)c1c(C)sc2nc(COc3ccc(F)cc3)cc(=O)n12 [Example 1.2, 7-(4-Fluorophenoxymethyl)-N,2-dimethyl-5-oxo-5H-[1,3]thiazolo[3,2-a]pyrimidine-3-carboxamide]
		2080 nM	Cc1sc2nc(Cn3ccc(C(F)(F)F)n3)cc(=O)n2c1C1CC1C#N (single isomer, unassigned) [compound 273]
		11100 nM	Cc1sc2nc(Cc3cc(C(F)(F)F)ccc3Cl)cc(=O)n2c1C1CC1C#N (centres unmarked) [compound 187, 2-[7-[[2-chloro-5-(trifluoromethyl)phenyl]methyl]-2-methyl-5-oxo-thiazolo[3,2-a]pyrimidin-3-yl]cyclopropanecarbonitrile]
783 nM	137%		CCN(Cc1cc(=O)n2c(CCCCO)c(C)sc2n1)c1ccc(F)cc1 [Example 13.3, 7-((Ethyl(4-fluorophenyl)amino)methyl)-3-(4-hydroxybutyl)-2-methyl-5H-thiazolo[3,2-a]pyrimidin-5-one]
